Measurements from article PMC2586124 (Journal of natural products, 2008).

Biological target: HIV-1 RNase H (Human immunodeficiency virus type 1 group M subtype B, UniProt P04585)
Assay: RNase H FRET assay, HIV-1 RNase H
Type: biochemical
Details: IC50, HIV-1 RNase H, in vitro

**Q.** Which IC50 does the source give for O=C(OC[C@H]1O[C@@H](Oc2ccc(O)cc2)[C@H](OC(=O)c2cc(O)c(O)c(O)c2)[C@@H](O)[C@@H]1O)c1ccc(O)cc1 [hyemaloside B (2), hyemaloside B] here?
**A.** > 18.3 µM
